Test results: patent US6989389B2, “Aryl ether substituted imidazoquinolines” (3M Innovative Properties Co., priority 2000, dated 2006)
Where two headings read alike, the source gives them in different places.

Columns and labels:
[1] = tested on: Peripheral blood mononuclear cells (PBMC); assay: Cytokine Induction in Human Cells (in vitro human blood cell system, IFN and TNF secreted into culture media); type: cell-based; parameters: key to Lowest Effective Concentration (μM) Tumor Necrosis Factor / Lowest Effective Concentration (μM) Interferon: *: no induction was seen at any of the tested concentrations; conditions: 18 to 24 hours, tested 30-0.014 μM
Method in brief: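 Human donor PBMC (2×10^6 cells/mL, RPMI complete) incubated 18–24 h at 37 °C, 5% CO2 with compound, 3-fold dilutions 30–0.014 μM, ≤1% DMSO. IFN-α measured by ELISA, TNF-α by ELISA or IGEN immunoassay in supernatants (pg/mL). Value is lowest concentration inducing each cytokine.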

[2] = Homo sapiens, PBMC, lowest concentration found to induce interferon (α), ELISA, read-out: Lowest Effective Concentration (μM) Interferon
[3] = Homo sapiens, PBMC, lowest concentration found to induce tumor necrosis factor (α), ELISA or IGEN assay, read-out: Lowest Effective Concentration (μM) Tumor Necrosis Factor
[4] = lowest concentration found to induce interferon (α), ELISA
[5] = lowest concentration found to induce tumor necrosis factor (α), ELISA or IGEN assay

| SMILES | minimal effective concentration [1, 2] | minimal effective concentration [1, 3] | melting point | Lowest Effective Concentration (μM) Interferon [1, 4] | Lowest Effective Concentration (μM) Tumor Necrosis Factor [1, 5] | minimal effective concentration ([1]; lowest concentration found to induce interferon (α), ELISA, read-out: Lowest Effective Concentration (μM) Interferon) | minimal effective concentration ([1]; lowest concentration found to induce tumor necrosis factor (α), ELISA or IGEN assay, read-out: Lowest Effective Concentration (μM) Tumor Necrosis Factor) |
| --- | --- | --- | --- | --- | --- | --- | --- |
| Cc1nc2c(N)nc3ccccc3c2n1CCOCc1ccccc1 [Example 127, 1-[2-(Benzyloxy)ethyl]-2-methyl-1H-imidazo[4,5-c]quinolin-4-amine] | 0.01 µM | 0.12 µM | 159 to 160 °C |  |  |  |  |
| CCCCCCCCc1nc2c(N)nc3ccccc3c2n1CCOCc1ccccc1 [Example 128, 1-[2-(Benzyloxy)ethyl]-2-octyl-1H-imidazo[4,5-c]quinolin-4-amine] |  |  | 110 to 111 °C | * | * |  |  |
| COCCc1nc2c(N)nc3ccccc3c2n1CCOc1ccccc1 [Example 129, 2-(2-Methoxyethyl)-1-(2-phenoxyethyl)-1H-imidazo[4,5-c]quinolin-4-amine] | 0.01 µM | 0.04 µM | 171 to 174 °C |  |  |  |  |
| CC(C)Cc1nc2c(N)nc3ccccc3c2n1CCOc1ccccc1 [Example 130, 2-Isobutyl-1-(2-phenoxyethyl)-1H-imidazo[4,5-c]quinolin-4-amine] | 3.33 µM | 3.33 µM | 176.6 to 177.8 °C |  |  |  |  |
| CC(C)c1nc2c(N)nc3ccccc3c2n1CCOc1ccccc1 [Example 131, 2-Isopropyl-1-(2-phenoxyethyl)-1H-imidazo[4,5-c]quinolin-4-amine] |  | 10 µM | 229 to 231 °C | * |  |  |  |
| CCCCc1nc2c(N)nc3ccccc3c2n1CCOc1ccccc1 [Example 132, 2-Butyl-1-(2-phenoxyethyl)-1H-imidazo[4,5-c]quinolin-4-amine] | 0.01 µM | 3.33 µM | 168.3 to 169.5 °C |  |  |  |  |
| Nc1nc2ccccc2c2c1nc(COc1ccccc1)n2CCOc1ccccc1 [Example 133, 1-(2-Phenoxyethyl)-2-(phenoxymethyl)-1H-imidazo[4,5-c]quinolin-4-amine] | 3.33 µM |  | 168.5 to 170 °C |  | * |  |  |
| COc1ccc(Cc2nc3c(N)nc4ccccc4c3n2CCOc2ccccc2)cc1 [Example 134, 2-(4-Methoxybenzyl)-1-(2-phenoxyethyl)-1H-imidazo[4,5-c]quinolin-4-amine] |  |  | 201 to 203.6 °C | * | * |  |  |
| Nc1nc2ccccc2c2c1nc(C1CCCC1)n2CCOc1ccccc1 [Example 135, 2-Cyclopentyl-1-(2-phenoxyethyl)-1H-imidazo[4,5-c]quinolin-4-amine] |  |  | 216 to 217.9 °C | * | * |  |  |
| Nc1nc2ccccc2c2c1nc(CCC1CCCC1)n2CCOc1ccccc1 [Example 138, 2-(2-Cyclopentylethyl)-1-(2-phenoxyethyl)-1H-imidazo[4,5-c]quinolin-4-amine] | 1.11 µM |  | 165 °C |  | * |  |  |
| Nc1nc2ccccc2c2c1nc(C1CCOC1)n2CCOc1ccccc1 (stereo not drawn) [Example 139, 1-(2-Phenoxyethyl)-2-tetrahydrofuran-3-yl-1H-imidazo[4,5-c]quinolin-4-amine] |  |  | 235.9 to 236.3 °C | * | * |  |  |
| Nc1nc2ccccc2c2c1nc(-c1ccccc1)n2CCOc1ccccc1 [Example 140, 1-(2-Phenoxyethyl)-2-phenyl-1H-imidazo[4,5-c]quinolin-4-amine] |  |  | 182.5 to 184.6 °C | * | * |  |  |
| CCC(COCc1ccc(C#N)cc1)n1cnc2c(N)nc3ccccc3c21 (stereo not drawn) [Example 141, 4-{[2-(4-Amino-1H-imidazo[4,5-c]quinolin-1-yl)butoxy]methyl}benzonitrile] |  |  | 160 to 161 °C |  |  | 0.12 µM | 0.12 µM |
| Cc1nc2c(N)nc3ccccc3c2n1CCCOCC#Cc1ccccc1 [Example 147, 2-Methyl-1-{3-[(3-phenylprop-2-ynyl)oxy]propyl}-H-imidazo[4,5-c]quinolin-4-amine] | 0.37 µM | 0.37 µM | 160 to 161.6 °C |  |  |  |  |
| Cc1nc2c(N)nc3ccccc3c2n1CCCOCCCc1ccccc1 [Example 148, 2-Methyl-1-[3-(3-phenylpropoxy)propyl]-1H-imidazo[4,5-c]quinolin-4-amine] | 1.11 µM | 1.11 µM | 145 to 146.1 °C |  |  |  |  |
| Cc1nc2c(N)nc3ccccc3c2n1CCCCOCC#Cc1ccccc1 [Example 149, 2-Methyl-1-{4-[(3-phenylprop-2-ynyl)oxy]butyl}-1H-imidazo[4,5-c]quinolin-4-amine] | 0.041 µM | 0.37 µM | 109.2 to 110 °C |  |  |  |  |
| Cc1nc2c(N)nc3ccccc3c2n1CCCCOCCCc1ccccc1 [Example 150, 2-Methyl-1 [4-(3-phenylpropoxy)butyl]-1H-imidazo[4,5-c]quinolin-4-amine] | 0.37 µM | 1.11 µM | 105.1 to 106 °C |  |  |  |  |
